In paper PMC11328603 (Journal of Enzyme Inhibition and Medicinal Chemistry, 2024):

Molecular target: Escherichia coli β-glucuronidase (EcGUS) (Escherichia coli, UniProt P05804)
Test: PNPG hydrolysis assay, Lineweaver-Burk kinetics
Assay type: biochemical

Escherichia coli β-glucuronidase (EcGUS), sequence (P05804 whole entry): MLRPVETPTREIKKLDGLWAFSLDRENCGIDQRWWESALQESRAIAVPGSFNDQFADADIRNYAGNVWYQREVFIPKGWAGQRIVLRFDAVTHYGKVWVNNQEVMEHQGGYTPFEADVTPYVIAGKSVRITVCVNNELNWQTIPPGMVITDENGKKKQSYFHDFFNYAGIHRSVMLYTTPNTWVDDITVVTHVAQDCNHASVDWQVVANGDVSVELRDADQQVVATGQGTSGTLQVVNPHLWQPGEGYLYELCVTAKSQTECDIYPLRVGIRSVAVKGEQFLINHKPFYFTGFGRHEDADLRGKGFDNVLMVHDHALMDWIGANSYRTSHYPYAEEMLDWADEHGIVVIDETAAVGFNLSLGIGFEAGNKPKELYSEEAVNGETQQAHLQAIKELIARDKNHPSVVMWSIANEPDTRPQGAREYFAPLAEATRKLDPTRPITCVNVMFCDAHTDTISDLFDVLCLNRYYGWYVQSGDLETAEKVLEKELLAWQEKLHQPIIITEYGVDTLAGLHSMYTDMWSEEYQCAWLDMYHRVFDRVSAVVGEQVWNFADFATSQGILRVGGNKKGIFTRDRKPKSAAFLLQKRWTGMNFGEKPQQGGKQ

With Clc1ccc2c(c1)C(N1CCNCC1)=Nc1ccccc1O2 [AMX, amoxapine] the “PNPG hydrolysis assay, Lineweaver-Burk kinetics” value was “both AMX and E-9 acted as uncompetitive inhibitors against EcGUS”.
